Counter-ions that a name gives are not always drawn.
Key:
plasma protein [1] = experiment: Plasma protein binding rate (PPB), SD rats; type: in vitro ADME; details: 2 μM, 4 hours dialysis
Method: (§1) 597 μL of blank plasma from CD-1 mice, SD rats, beagle dogs, cynomolgus monkeys and humans were weighed, and the working solution of the assay compound or the working solution of warfarin was added, so that the final concentration of the assay compound and warfarin in the plasma sample was 2 μM. The samples were mixed thoroughly. The final concentration of DMSO as an organic phase was 0.5%; 50 μL of the assay compound and warfarin plasma samples were pipetted into a sample receiving plate, and the corresponding volume of blank plasma or buffer was immediately added, so that the final volume of each sample well was 100 μL, and the volume ratio of plasma:dialysis buffer was 1:1, and then the stop solution was added to these samples. The samples were used as the To sample for recovery and stability determination. The assay compound and warfarin plasma samples were added to the dosing end of each dialysis well, and blank dialysis buffer was added to the receiving end corresponding to the dialysis well. Then the dialysis plate was sealed with a gas permeable membrane and placed in a humidified 5% CO2 incubator, and incubated with shaking at 37° C. and 100 rpm for 4 hours. […] After protein precipitation, all samples were analyzed by LC/MS/MS, and the free rate (% Unbound) of the compound was calculated by the following formula: […]

[2] = tested on: novel coronavirus βCoV/KOR/KCDC03/2020 strain; experiment: In vitro anti-novel coronavirus activity in Vero cells; type: cell-based, SARS-CoV-2; details: Severe acute respiratory syndrome coronavirus 2, Vero, 24 h
in vivo [3] = experiment: in vivo; set-up: species or system Sprague-Dawley strain rats; details: Sprague-Dawley, rat
Method: (§2) Objective of assay: The druggability of compounds was evaluated by measuring their pharmacokinetic properties in different animal species.
(§3) Assay Materials: C57BL6/J strain mice, Sprague-Dawley strain rats and beagle dogs.
(§4) The pharmacokinetic characteristics of the compound after intravenous and oral administration were assayed in animals using a standard protocol. In the assay, the candidate compound was prepared into a clear solution (intravenous injection) or a homogeneous suspension (oral administration) and administrated to the animal once. Whole blood samples were collected within 24 hours, and centrifuged at 3200 g for 10 minutes. The supernatant was separated to obtain a plasma sample. The blood concentration was quantitatively analyzed by LC-MS/MS analysis method, and pharmacokinetic parameters such as peak concentration, time to peak, clearance rate, half-life, and area under the drug-time curve were calculated.

in vivo [4] = experiment: in vivo; set-up: species or system beagle dogs; details: beagle, dog
Method: as §2, §3, §4

coronavirus OC43 = experiment: Efficacy on suckling mice infected with coronavirus; type: in vivo, Suckling mice (C57BL6/J strain); details: intraperitoneal, once a day day 0 to day 6
Method: Objective of assay: The in vivo antiviral activity of the compound against coronavirus was evaluated by observing the percentage of weight change and survival rate of the assay animals in a suckling mouse model infected with coronavirus (COV). The mouse infection model is widely used to determine the protective effect of the compound on virus-infected animals to reflect the antiviral activity of the compound.
Suckling mice (C57BL6/J strain) were inoculated with virus (coronavirus OC43) by intranasal drops on day 0, with an inoculation dose of 3500 p.f.u./mouse. From day 0 to day 6, the mice were treated with a vehicle (5% DMSO+40% polyethylene glycol 400+55% water) or 12.5 mpk or 25 mpk of the compound of the present disclosure for 7 consecutive days, once a day, by intraperitoneal injection, for a total of 7 times, with the first administration time being 2 hours before virus inoculation. The animals were continuously observed from day 0 to day 14, and the body weight, health and survival status were recorded.

plasma protein [5] = experiment: Plasma protein binding rate (PPB), beagle dogs; type: in vitro ADME; details: 2 μM, 4 hours dialysis
Method: as §1

For `Cn1cnc(Cc2cn(Cc3cc(F)c(F)cc3F)c(Nc3cc4cn(C)nc4cc3Cl)nc2=O)n1` [Compound 4 hydrochloride], the “PPB_Unbound (%)” value (plasma protein [1]) was 4.5%, the EC50 [2] was 52 nM and the Vd (in vivo [3]; iv, 0.25 mg/kg) was 0.62 L/kg. It also gave a clearance (in vivo [3]; iv, 0.25 mg/kg) of 4.1 mL/min/kg, a half-life (in vivo [3]; iv, 0.25 mg/kg) of 2.2 h and an AUC (in vivo [3]; iv, 0.25 mg/kg, AUC) of 2.4 µM·h. It also gave an AUC (in vivo [3]; iv, 0.25 mg/kg, AUCfree) of 0.11 µM·h, a Cmax (in vivo [3]; po, 0.5 mg/kg) of 530 nM and a Tmax (in vivo [3]; po, 0.5 mg/kg) of 2 h. For the same compound, the bioavailability (in vivo [3]; po, 0.5 mg/kg) was 103%, the half-life (in vivo [3]; po, 0.5 mg/kg) was 3.4 h and the AUC (in vivo [3]; po, 0.5 mg/kg, AUC) was 4.8 µM·h. It also gave an AUC (in vivo [3]; po, 0.5 mg/kg, AUCfree) of 0.22 µM·h, a Vd (in vivo [4]; iv, 0.1 mg/kg) of 2.5 L/kg and a clearance (in vivo [4]; iv, 0.1 mg/kg) of 7.2 mL/min/kg. It also gave a half-life (in vivo [4]; iv, 0.1 mg/kg) of 6.2 h, an AUC (in vivo [4]; iv, 0.1 mg/kg, AUC) of 0.504 µM·h and an AUC (in vivo [4]; iv, 0.1 mg/kg, AUCfree) of 0.12 µM·h. The Cmax (in vivo [4]; po, 0.5 mg/kg) was 270 nM, the Tmax (in vivo [4]; po, 0.5 mg/kg) was 3 h and the bioavailability (in vivo [4]; po, 0.5 mg/kg) was 121%. For the same compound, the half-life (in vivo [4]; po, 0.5 mg/kg) was 9.5 h, the AUC (in vivo [4]; po, 0.5 mg/kg, AUC) was 3.1 µM·h and the AUC (in vivo [4]; po, 0.5 mg/kg, AUCfree) was 0.74 µM·h. The Survival rate (coronavirus OC43; 12.5 mpk, Day 1) was 100%, the “Weight changes (Percent of starting body weight)” value (coronavirus OC43; 12.5 mpk, Day 1) was 5.35 ± 0.58% of starting body weight and the Survival rate (coronavirus OC43; 12.5 mpk, Day 2) was 100%. For the same compound, the “Weight changes (Percent of starting body weight)” value (coronavirus OC43; 12.5 mpk, Day 2) was 14.57 ± 1.37% of starting body weight, the Survival rate (coronavirus OC43; 12.5 mpk, Day 3) was 100% and the “Weight changes (Percent of starting body weight)” value (coronavirus OC43; 12.5 mpk, Day 3) was 22.55 ± 1.37% of starting body weight. The Survival rate (coronavirus OC43; 12.5 mpk, Day 4) was 100%, the “Weight changes (Percent of starting body weight)” value (coronavirus OC43; 12.5 mpk, Day 4) was 30.95 ± 1.19% of starting body weight and the Survival rate (coronavirus OC43; 12.5 mpk, Day 5) was 100%. The “Weight changes (Percent of starting body weight)” value (coronavirus OC43; 12.5 mpk, Day 5) was 39.15 ± 1.15% of starting body weight, the Survival rate (coronavirus OC43; 12.5 mpk, Day 6) was 100% and the “Weight changes (Percent of starting body weight)” value (coronavirus OC43; 12.5 mpk, Day 6) was 42.61 ± 1.80% of starting body weight. The Survival rate (coronavirus OC43; 12.5 mpk, Day 7) was 100%, the “Weight changes (Percent of starting body weight)” value (coronavirus OC43; 12.5 mpk, Day 7) was 49.30 ± 2.16% of starting body weight and the Survival rate (coronavirus OC43; 12.5 mpk, Day 8) was 100%. For the same compound, the “Weight changes (Percent of starting body weight)” value (coronavirus OC43; 12.5 mpk, Day 8) was 55.56 ± 2.05% of starting body weight, the Survival rate (coronavirus OC43; 12.5 mpk, Day 9) was 100% and the “Weight changes (Percent of starting body weight)” value (coronavirus OC43; 12.5 mpk, Day 9) was 57.80 ± 4.27% of starting body weight. The Survival rate (coronavirus OC43; 12.5 mpk, Day 10) was 100%, the “Weight changes (Percent of starting body weight)” value (coronavirus OC43; 12.5 mpk, Day 10) was 60.74 ± 6.34% of starting body weight and the Survival rate (coronavirus OC43; 12.5 mpk, Day 11) was 100%. The “Weight changes (Percent of starting body weight)” value (coronavirus OC43; 12.5 mpk, Day 11) was 60.39 ± 8.87% of starting body weight, the Survival rate (coronavirus OC43; 12.5 mpk, Day 12) was 100% and the “Weight changes (Percent of starting body weight)” value (coronavirus OC43; 12.5 mpk, Day 12) was 65.10 ± 10.85% of starting body weight. The Survival rate (coronavirus OC43; 12.5 mpk, Day 13) was 100%, the “Weight changes (Percent of starting body weight)” value (coronavirus OC43; 12.5 mpk, Day 13) was 76.18 ± 9.69% of starting body weight and the Survival rate (coronavirus OC43; 12.5 mpk, Day 14) was 100%. For the same compound, the “Weight changes (Percent of starting body weight)” value (coronavirus OC43; 12.5 mpk, Day 14) was 96.72 ± 10.96% of starting body weight, the Survival rate (coronavirus OC43; 25 mpk, Day 1) was 100% and the “Weight changes (Percent of starting body weight)” value (coronavirus OC43; 25 mpk, Day 1) was 6.45 ± 1.94% of starting body weight. The Survival rate (coronavirus OC43; 25 mpk, Day 2) was 100%, the “Weight changes (Percent of starting body weight)” value (coronavirus OC43; 25 mpk, Day 2) was 12.35 ± 1.74% of starting body weight and the Survival rate (coronavirus OC43; 25 mpk, Day 3) was 100%. The “Weight changes (Percent of starting body weight)” value (coronavirus OC43; 25 mpk, Day 3) was 22.61 ± 2.41% of starting body weight, the Survival rate (coronavirus OC43; 25 mpk, Day 4) was 100% and the “Weight changes (Percent of starting body weight)” value (coronavirus OC43; 25 mpk, Day 4) was 28.78 ± 2.69% of starting body weight. The Survival rate (coronavirus OC43; 25 mpk, Day 5) was 100%, the “Weight changes (Percent of starting body weight)” value (coronavirus OC43; 25 mpk, Day 5) was 34.72 ± 2.23% of starting body weight and the Survival rate (coronavirus OC43; 25 mpk, Day 6) was 100%. For the same compound, the “Weight changes (Percent of starting body weight)” value (coronavirus OC43; 25 mpk, Day 6) was 39.95 ± 2.01% of starting body weight, the Survival rate (coronavirus OC43; 25 mpk, Day 7) was 100% and the “Weight changes (Percent of starting body weight)” value (coronavirus OC43; 25 mpk, Day 7) was 45.35 ± 2.00% of starting body weight. The Survival rate (coronavirus OC43; 25 mpk, Day 8) was 100%, the “Weight changes (Percent of starting body weight)” value (coronavirus OC43; 25 mpk, Day 8) was 49.97 ± 1.91% of starting body weight and the Survival rate (coronavirus OC43; 25 mpk, Day 9) was 100%. The “Weight changes (Percent of starting body weight)” value (coronavirus OC43; 25 mpk, Day 9) was 55.69 ± 2.31% of starting body weight, the Survival rate (coronavirus OC43; 25 mpk, Day 10) was 100% and the “Weight changes (Percent of starting body weight)” value (coronavirus OC43; 25 mpk, Day 10) was 62.00 ± 2.26% of starting body weight. The Survival rate (coronavirus OC43; 25 mpk, Day 11) was 100%, the “Weight changes (Percent of starting body weight)” value (coronavirus OC43; 25 mpk, Day 11) was 72.13 ± 3.02% of starting body weight and the Survival rate (coronavirus OC43; 25 mpk, Day 12) was 100%. For the same compound, the “Weight changes (Percent of starting body weight)” value (coronavirus OC43; 25 mpk, Day 12) was 87.49 ± 3.63% of starting body weight, the Survival rate (coronavirus OC43; 25 mpk, Day 13) was 100% and the “Weight changes (Percent of starting body weight)” value (coronavirus OC43; 25 mpk, Day 13) was 95.42 ± 4.90% of starting body weight. The Survival rate (coronavirus OC43; 25 mpk, Day 14) was 100%, the “Weight changes (Percent of starting body weight)” value (coronavirus OC43; 25 mpk, Day 14) was 118.37 ± 5.15% of starting body weight and the “PPB_Unbound (%)” value (plasma protein [5]) was 23.9%.
